Experiments:
Cortical neurone [1] = assay: Neurotrophic activity in isolated embryonic mouse embryonic Cortical neurons assessed as induction of neurite outgrowth at 0.01 uM after 48 hrs relative to control; type: functional
Hippocampal neuron = assay: Neurotrophic activity in isolated embryonic mouse brain Hippocampal neurons assessed as induction of neurite outgrowth after 48 hrs relative to control; type: functional
Cortical neurone [2] = assay: Neurotrophic activity in isolated embryonic mouse embryonic Cortical neurons assessed as induction of neurite outgrowth at 1 uM after 48 hrs relative to control; type: functional
[3] = Neurotrophic activity in isolated embryonic mouse brain Hippocampal neurons assessed as induction of neurite outgrowth at 0.1 uM after 48 hrs relative to control; type: functional, Hippocampal neuron
Cortical neurone [4] = assay: Neurotrophic activity in isolated embryonic mouse embryonic Cortical neurons assessed as induction of neurite outgrowth after 48 hrs relative to control; type: functional
[5] = molecular target: T1, Choline O-acetyltransferase (Rattus norvegicus) (UniProt P32738); assay: Increase in choline acetyltransferase activity in rat brain neurons at […] after 10 days relative to control; type: tissue-based
T1 sequence (whole entry): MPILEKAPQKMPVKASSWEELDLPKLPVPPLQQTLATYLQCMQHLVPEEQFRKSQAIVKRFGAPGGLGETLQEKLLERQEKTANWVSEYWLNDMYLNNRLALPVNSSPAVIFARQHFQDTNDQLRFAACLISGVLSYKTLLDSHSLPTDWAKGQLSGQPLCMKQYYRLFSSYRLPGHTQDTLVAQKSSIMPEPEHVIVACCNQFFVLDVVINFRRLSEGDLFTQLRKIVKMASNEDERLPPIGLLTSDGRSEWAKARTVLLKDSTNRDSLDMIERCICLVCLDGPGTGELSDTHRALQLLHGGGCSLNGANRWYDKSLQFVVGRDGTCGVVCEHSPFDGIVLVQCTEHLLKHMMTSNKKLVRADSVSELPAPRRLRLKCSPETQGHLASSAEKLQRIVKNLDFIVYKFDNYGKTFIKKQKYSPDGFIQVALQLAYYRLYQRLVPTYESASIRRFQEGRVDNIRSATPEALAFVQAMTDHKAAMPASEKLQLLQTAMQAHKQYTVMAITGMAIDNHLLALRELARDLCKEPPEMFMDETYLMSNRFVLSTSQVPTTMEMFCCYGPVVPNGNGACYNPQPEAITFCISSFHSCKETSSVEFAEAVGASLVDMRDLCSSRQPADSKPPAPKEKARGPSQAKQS

Cortical neurone [6] = assay: Neurotrophic activity in isolated embryonic mouse embryonic Cortical neurons assessed as induction of neurite outgrowth at 0.1 uM after 48 hrs relative to control; type: functional
[7] = Neurotrophic activity in isolated embryonic mouse brain Hippocampal neurons assessed as induction of neurite outgrowth at 0.01 uM after 48 hrs relative to control; type: functional, Hippocampal neuron
[8] = Neurotrophic activity in isolated embryonic mouse brain Hippocampal neurons assessed as induction of neurite outgrowth at 1 uM after 48 hrs relative to control; type: functional, Hippocampal neuron

Compound	Activity (Cortical neurone [1])	Activity (Hippocampal neuron)	Activity (Cortical neurone [2])	Activity [3]	Activity (Cortical neurone [4])	Activity [5]	Activity (Cortical neurone [6])	Activity [7]	Activity [8]
C=CCc1ccc(O)c(-c2cc(CC=C)ccc2O[C@H]2CC(C)(C)[C@@H]3CC[C@]4(C)C[C@]23CC[C@H]4O)c1 [CLOVANEMAGNOLOL]	44.2%	Dose-dependent effect	-80.7%	26.5%	Dose-dependent effect	142%	22.7%	62.8%	-83.9%
C=CCc1ccc(O)c(-c2cc(CC=C)ccc2O)c1 [MAGNOLOL]	20.2%	Dose-dependent effect	-74.6%	23.9%	Dose-dependent effect		55.6%	50.1%	-69%
